Active and inactive are the calls of the source. The calls are words filed in the database; no cut-off is given here. Peptide text beside a SMILES is read from it.
What was measured:
[1] = Antidiabetic nephropathy activity in rat CRL-2573 cells assessed as inhibition of high glucose-induced IL-6 production at 10 uM preincubated for 1 hr before glucose challenge measured after 24 hrs by ELISA; type: functional, cell-based
[2] = Antidiabetic nephropathy activity in rat CRL-2573 cells assessed as inhibition of high glucose-induced ROS production at 1 to 10 uM by flow cytometry; type: functional, cell-based
[3] = Antidiabetic nephropathy activity in rat CRL-2573 cells assessed as inhibition of high glucose-induced MCP-1 production at 10 uM preincubated for 1 hr before glucose challenge measured after 24 hrs by ELISA; type: functional, cell-based
[4] = Cytotoxicity against rat CRL-2573 cells assessed as cell viability at 10 uM after 24 hrs by trypan blue exclusion assay; type: cell-based; details: crl-2573, 24 h
[5] = Antidiabetic nephropathy activity in rat CRL-2573 cells assessed as inhibition of high glucose-induced collagen 4production at 1 uM preincubated for 1 hr before glucose challenge measured after 24 hrs by ELISA; type: functional, cell-based

Compound | Activity [1] | Activity [2] | Activity [3] | Activity [4] | Activity [5]
CC(C)C[C@@H]1NC(=O)[C@H](CC(=O)O)NC(=O)[C@H](Cc2c[nH]c3ccccc23)NC(=O)[C@H](C)NC(=O)[C@@H]2CCCN2C(=O)CNC(=O)[C@H](Cc2ccccc2)NC(=O)[C@@H]2CCCN2C1=O (cyclo(AWDLPFGP)) | Active | Active | Active | – | –
CC[C@H](C)[C@@H]1NC(=O)[C@@H]2CCCN2C(=O)[C@@H]2CCCN2C(=O)[C@H](Cc2ccc(O)cc2)NC(=O)[C@H](CO)NC(=O)[C@H](C)NC(=O)[C@H](Cc2ccccc2)NC(=O)[C@H](CO)NC1=O [DUANBANHUAIN A] (cyclo(ASYPPISF)) | Active | Active | Active | Non-toxic | Active

Reference: ChEMBL document CHEMBL1921739, “Diabetic nephropathy-related active cyclic peptides from the roots of Brachystemma calycinum” (Bioorg Med Chem Lett, 2011)
